Laboratory results: patent US20220347171A1, “TREATMENT OF PRURIGO NODULARIS” (TREVI THERAPEUTICS, INC., priority 2016, published 2022)
Where a name gives a salt, the structure may show the parent alone.

How the values were obtained:
[1] = system: prurigo nodularis patients; experiment: Phase 2 open label extension study (TR03ext, Example 3), titrated 30 mg QD to 180 mg BID, up to 50 weeks: Worst itch NRS; format: in vivo, human; details: for Worst Itch NRS Visit Mean (SD): Baseline 7.6 (1.6)
Description: This clinical study was a Phase 2 Open Label Extension Study (clinical study TR03ext) of the randomized, double-blind, 3-parallel arm, placebo controlled dose ranging study described in Example 2. All those subjects who were randomized, and then completed Example 2 study, were eligible to participate in the Extension Study.
The primary endpoint was a description of the overall incidence and nature of Treatment-Emergent AEs (TEAES) during weeks 5-50 of the study. Exploratory efficacy endpoints included Change from Baseline patient reported outcome measures of Worst itch NRS, itchy VRS and ItchyQoL, by Treatment Period study visit and Baseline NRS score. There was also an assessment of any potential skin lesion changes over time using the metrics of the PAS.
Of the 63 patients that were randomized to the study of Example 2, 36 subjects who enrolled into Extension Study entered the Treatment Period of the study and were exposed to nalbuphine HCl ER tablet administration and are the basis of the study safety population analysis.
Patients in Extension Study were titrated over a dose range of 30 mg QD to 180 mg BID based on tolerability. The selected dose range was based on Example 2 study whereby patients were titrated from a 30 mg QD dose either to 30 mg BID, 60 mg BID, 90 mg BID, 120 mg BID or a 180 mg BID dose. The highest dose proposed was 180 mg BID (360 mg daily dose), and was well below the highest recommended daily treatment of 160 mg IV (equivalent to 960 mg oral) for the current marketed parenteral administered product.
The study duration for each patient was up to 52 weeks, with up to 50 weeks on study drug. The Extension Study consisted of a Treatment Period (that was followed by a Washout Safety Follow-up Period) and an Observation Period. Patients either entered directly into a drug Treatment Period (NRS >5) or a no-drug Observation Period (NRS ≤5) based on their reported NRS scores on the first Visit (Visit 1a). For up to 12 Extended Screening weeks, patients in the no-drug Observation Period could have also transitioned into the drug Treatment Period if their NRS increased to NRS >5. All patients entering the Treatment Period, whether immediately upon study entry or following a period of time in the Observation Period, were titrated to a dose ranging between 30 mg up to 180 mg BID, the highest dose tested in Example 2.

[2] = system: prurigo nodularis patients; experiment: Example 2 trial: ItchyQoL total score; format: in vivo, human; details: for Mean (SD) decrease in ItchyQoL total score from baseline to Week 10: placebo −5.45 (10.91)
Procedure: This clinical study was a double-blind, placebo-controlled trial in which prurigo nodularis patients were randomized in a 1:1:1 ratio to nalbuphine ER tablets to a target dose of 90 mg twice daily (BID), nalbuphine HCl ER tablets 180 mg BID, or placebo tablets BID. Use of nonsedating rescue antihistamine medications (non-first generation H1-antihistamines [Simons F E. Advances in H1-antihistamines. N Engl J Med. 2004; 351(21):2203-17.]) were allowed in the study but their use was recorded. Cleansing emollients were allowed for hygiene purposes provided there were no active substances (such as menthol or urea) contained in the lotion. A placebo comparator was chosen because there are no approved treatments for prurigo nodularis in the United States or Europe or an established standard of care that could serve as an active control.
Quality of life-related secondary endpoints included change from Day 1 to the Evaluation Period in itching-related quality of life (using the Itchy QoL) and itching-related sleep disruption (using the MOS Sleep Scale-R). The Hospital Anxiety and Depression Score (HADS) used as a general measure of anxiety and depression.
Efficacy analysis of secondary continuous endpoints was performed using a mixed model repeated ANCOVA with the main effects of treatment and site, including the baseline value for each endpoint as the covariate. The model included time (i.e. Visit) as a factor variable and treatment*time (with placebo as the reference category) with an unstructured covariance structure for repeated measures. For other secondary efficacy endpoints, the Time factor corresponded to the scheduled study visits when the assessment was obtained (Visit 3, Visit 4, and Visit 5). Data from all post-baseline visits were used to fit the model.
In the first 2 weeks of treatment, patients were blindly force-titrated to their assigned target dose, with the patients in the active arms reaching a dose of 90 mg BID (NAL 90) and, for those in the high dose group, to 180 mg BID (NAL 180) in the second week. […]

[3] = injectable formulations (IV or IM or SC); cited from earlier work

**Q.** Which “Worst Itch NRS Mean (SD) Change from Baseline” value (shortened to “Worst Itch NRS Mean (SD) Change”) ([1]; Study Week 3, N=34) does the source give for Oc1ccc2c3c1OC1[C@@H](O)CC[C@@]4(O)[C@@H](C2)N(CC2CCC2)CC[C@]314 (stereo partly drawn) [Nalbuphine, 17-(cyclobutylmethyl)-4,5α-epoxymorphinian-3, 6α, 14-triol, hydrochloride] here?
**A.** −2.0 (2.2)

**Q.** And the “Worst Itch NRS Visit Mean (SD)” value ([1]; Study Week 3, N=34)?
**A.** 5.7 (2.4)

**Q.** What about the “Worst Itch NRS Mean (SD) Change” value ([1]; Study Week 5, N=33) of the same compound?
**A.** −2.5 (2.2)

**Q.** And the “Worst Itch NRS Visit Mean (SD)” value ([1]; Study Week 5, N=33)?
**A.** 5.2 (2.5)

**Q.** What about the “Worst Itch NRS Mean (SD) Change” value ([1]; Study Week 9, N=30) of the same compound?
**A.** −2.9 (2.2)

**Q.** What about the “Worst Itch NRS Visit Mean (SD)” value ([1]; Study Week 9, N=30) of the same compound?
**A.** 4.6 (2.3)

**Q.** What about the “Worst Itch NRS Mean (SD) Change” value ([1]; Study Week 13, N=25) of the same compound?
**A.** −2.7 (1.8)

**Q.** What about the “Worst Itch NRS Visit Mean (SD)” value ([1]; Study Week 13, N=25) of the same compound?
**A.** 4.8 (2.2)

**Q.** What about the “Worst Itch NRS Mean (SD) Change” value ([1]; Study Week 17, N=25) of the same compound?
**A.** −3.6 (2.6)

**Q.** What about the “Worst Itch NRS Visit Mean (SD)” value ([1]; Study Week 17, N=25) of the same compound?
**A.** 3.8 (2.4)

**Q.** What about the “Worst Itch NRS Mean (SD) Change” value ([1]; Study Week 21, N=22) of the same compound?
**A.** −3.3 (2.4)

**Q.** What about the “Worst Itch NRS Visit Mean (SD)” value ([1]; Study Week 21, N=22) of the same compound?
**A.** 4.1 (2.4)

**Q.** What about the “Worst Itch NRS Mean (SD) Change” value ([1]; Study Week 26, N=21) of the same compound?
**A.** −3.9 (2.2)

**Q.** And the “Worst Itch NRS Visit Mean (SD)” value ([1]; Study Week 26, N=21)?
**A.** 3.4 (1.6)

**Q.** And the “Worst Itch NRS Mean (SD) Change” value ([1]; Study Week 30, N=20)?
**A.** −4.2 (2.3)

**Q.** And the “Worst Itch NRS Visit Mean (SD)” value ([1]; Study Week 30, N=20)?
**A.** 3.2 (1.6)

**Q.** And the “Worst Itch NRS Mean (SD) Change” value ([1]; Study Week 34, N=18)?
**A.** −3.9 (2.1)

**Q.** What about the “Worst Itch NRS Visit Mean (SD)” value ([1]; Study Week 34, N=18) of the same compound?
**A.** 3.3 (1.6)

**Q.** And the “Worst Itch NRS Mean (SD) Change” value ([1]; Study Week 38, N=17)?
**A.** −3.9 (1.7)

**Q.** And the “Worst Itch NRS Visit Mean (SD)” value ([1]; Study Week 38, N=17)?
**A.** 3.2 (1.6)

**Q.** What about the “Worst Itch NRS Mean (SD) Change” value ([1]; Study Week 42, N=17) of the same compound?
**A.** −3.9 (1.4)

**Q.** What about the “Worst Itch NRS Visit Mean (SD)” value ([1]; Study Week 42, N=17) of the same compound?
**A.** 3.2 (1.4)

**Q.** What about the “Worst Itch NRS Mean (SD) Change” value ([1]; Study Week 46, N=17) of the same compound?
**A.** −3.9 (1.3)

**Q.** What about the “Worst Itch NRS Visit Mean (SD)” value ([1]; Study Week 46, N=17) of the same compound?
**A.** 3.2 (1.5)

**Q.** What about the “Worst Itch NRS Mean (SD) Change” value ([1]; Study Week 50, N=15) of the same compound?
**A.** −4.3 (1.3)

**Q.** And the “Worst Itch NRS Visit Mean (SD)” value ([1]; Study Week 50, N=15)?
**A.** 2.9 (1.7)

**Q.** What about the “Mean (SD) decrease in ItchyQoL total score from baseline to Week 10” value ([2]; 90 mg BID) of the same compound?
**A.** −7.79 (7.83)

**Q.** And the “ItchyQoL total score, LS mean difference versus placebo (mixed model repeated measures)” value ([2]; 180 mg BID, Week 10, p=0.022)?
**A.** −8.75

**Q.** What about the “Mean (SD) decrease in ItchyQoL total score from baseline to Week 10” value ([2]; 180 mg BID) of the same compound?
**A.** −13.83 (13.45)

**Q.** What about the half-life [3] of the same compound?
**A.** 2 to 3 h
